Measurements published in patent US4450115A, “Amino-alcohol derivatives” (Kyowa Hakko Kogyo Co., Ltd., priority 1979, dated 1984).
Counter-ions that a name gives are not always drawn. Like-named read-outs stand apart in the source and are kept apart here.

How the values were obtained:
in vivo = details: mouse, male dd-strain mice
Text: The test compounds were orally administered to male dd-strain mice weighing 20-25 g.

[1] = test system: main artery of the dogs' organ; assay: Effect on organ blood flow; format: in vivo, mongrel dogs; details: Canis lupus familiaris, iv, Table 5, 0.1 mg administration, femoral vein;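 note: percent change relative to blood flow before compound administration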
α-adrenergic receptor = assay: α blocking activity (inhibition of Norepinephrine-induced increase in systolic blood pressure); format: in vivo, mongrel dogs; details: Table 6, dogs, 3 μg/kg Norepinephrine i.v.
Protocol: (§1) In experiments (a), (b), (c) and (d), 3-4 male or female mongrel dogs (weight: 10-20 Kg) as one group were anesthetized by intravenous administration of 30 mg/kg of pentobarbital-Na. All compounds were dissolved in polyethylene glycol 400 and administered to the femoral vein.
(c-1) α blocking activity
In this test, 3 μg/kg of Norepinephrine is intravenously administered to the dogs to cause an increase in systolic blood pressure.

β1-adrenergic receptor = assay: β1 blocking activity (inhibition of Isoproterenol-induced increase in heart rate); format: in vivo, mongrel dogs; details: Table 6, dogs, 0.5 μg/kg Isoproterenol i.v.
Protocol: as §1
(c-2) β1 blocking activity
In this test, 0.5 μg/kg of Isoproterenol is intravenously administered to the dogs to cause an increase in the heart rate.

β2-adrenergic receptor = assay: β2 blocking activity (inhibition of Isoproterenol-induced decrease in diastolic blood pressure); format: in vivo, mongrel dogs; details: Table 6, dogs, 0.5 μg/kg Isoproterenol i.v.
Protocol: as §1
(c-3) β2 blocking activity
In this test, 0.5 μg/kg of Isoproterenol is intravenously administered to the dogs to cause a decrease in diastolic blood pressure.

[2] = test system: main artery of the dogs' organ; assay: Effect on organ blood flow; format: in vivo, mongrel dogs; details: Canis lupus familiaris, iv, Table 7, femoral vein;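 note: percent change relative to blood flow before compound administration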
Protocol: as §1
(b) Effect on organ blood flow M (%)
In this test, 1 mg/kg of each compound shown in Tables 5 and 7 is administered to the dogs and an electromagnetic probe is attached to the main artery of the dogs' organ to measure the flow of blood.

Effect on heart rate = format: in vivo, mongrel dogs; details: Table 7; dogs, 1 mg/kg, femoral vein
Protocol: as §1
(d) Effect on heart rate (beats/min.)

[3] = read-out: Organ blood flow, Crotch (percentage change)
[4] = read-out: Organ blood flow, Malleus (percentage change)

SMILES	LD50 (in vivo; Table 6, oral) [mg/kg]	α blocking activity, percentage inhibition (α-adrenergic receptor; test compound 0.1 mg/kg)	β1 blocking activity, percentage inhibition (β1-adrenergic receptor; test compound 0.1 mg/kg)	β2 blocking activity, percentage inhibition (β2-adrenergic receptor; test compound 0.1 mg/kg)	also measured
CCCC(=O)Nc1ccc(OCC(O)CNCC2COc3ccccc3O2)c(C(C)=O)c1 (stereo not shown) [Compound 4, 1-(4-butyrylamido-2-acetyl)phenoxy-3-(1,4-benzodioxane-2-methaneamino)-2-propanol]					LD50 (in vivo; Table 5, oral): > 1000 mg/kg; change in vivo at 0.1 mg [1, 3]: -18%; change in vivo at 0.1 mg [1, 4]: -46%
CC(CCc1ccccc1)NCC(O)COc1ccc(CC(N)=O)cc1 (stereo not shown) [Compound 11, 1-(4-carbamoylmethylphenoxy)-3-(1-methyl-3-phenylpropylamino)-2-propanol]	> 1000				α blocking activity, percentage inhibition (α-adrenergic receptor; *dose of compound 1 mg/kg): -78%; β1 blocking activity, percentage inhibition (β1-adrenergic receptor; *dose of compound 1 mg/kg): -86%; β2 blocking activity, percentage inhibition (β2-adrenergic receptor; *dose of compound 1 mg/kg): -22%
CC(CCc1ccccc1)NCC(O)COc1ccccc1C#N (stereo not shown) [Compound 12, 1-(2-cyanophenoxy)-3-(1-methyl-3-phenylpropylamino)-2-propanol]	125 to 250				α blocking activity, percentage inhibition (α-adrenergic receptor; *dose of compound 1 mg/kg): -52%; β1 blocking activity, percentage inhibition (β1-adrenergic receptor; *dose of compound 1 mg/kg): -100%; β2 blocking activity, percentage inhibition (β2-adrenergic receptor; *dose of compound 1 mg/kg): -100%
Cc1cccc(OCC(O)CNC(C)CCc2ccccc2)c1C (stereo not shown) [Compound 13, 1-(2,3-dimethylphenoxy)-3-(1-methyl-3-phenylpropylamino)-2-propanol]	500 to 1000	-20%	-73%	-34%	
CCOC(=O)Cc1ccc(OCC(O)CNC(C)CCc2ccccc2)cc1 (stereo not shown) [Compound 14, 1-(4-ethoxycarbonylmethylphenoxy)-3-(1-methyl-3-phenylpropylamino)-2-propanol]	> 1000	+13%	-11%	+2%	
COC(=O)c1ccccc1OCC(O)CNC(C)CCc1ccccc1 (stereo not shown) [Compound 15, 1-(2-methoxycarbonylphenoxy)-3-(1-methyl-3-phenylpropylamino)-2-propanol]	500 to 1000	-2%	-30%	-40%	
CC(CCc1ccccc1)NCC(O)COc1ccccc1C(N)=O (stereo not shown) [Compound 16, 1-(2-carbamoylphenoxy)-3-(1-methyl-3-phenylpropylamino)-2-propanol]	250 to 500	-28%	-57%	-19%	
CC(CCc1ccccc1)NCC(O)COc1ccc(CC(=O)O)cc1 (stereo not shown) [Compound 17, 1-(4-carboxymethylphenoxy)-3-(1-methyl-3-phenylpropylamino)-2-propanol]	> 1000	+15%	+13%	-13%	
CC(CCc1ccccc1)NCC(O)COc1ccc(CC(=O)NN)cc1 (stereo not shown) [Compound 18, 1-(4-hydrazinocarbonylmethylphenoxy)-3-(1-methyl-3-phenylpropylamino)-2-propanol]	> 1000	+10%	-3%	+2%	
CCOC(=O)Cc1cccc(OCC(O)CNC(C)CCc2ccccc2)c1 (stereo not shown) [Compound 19, 1-(3-ethoxycarbonylmethylphenoxy)-3-(1-methyl-3-phenylpropylamino)-2-propanol]	> 1000	+23%	-7%	+14%	
CC(CCc1ccccc1)NCC(O)COc1cccc(CC(N)=O)c1 (stereo not shown) [Compound 20, 1-(3-carbamoylmethylphenoxy)-3-(1-methyl-3-phenylpropylamino)-2-propanol]	> 1000	+7%	-9%	+9%	
CCOC(=O)Cc1ccc(C(O)CNC(C)CCc2ccccc2)cc1 (stereo not shown) [Compound 21, 1-(4-ethoxycarbonylmethylphenyl)-2-(1-methyl-3-phenylpropylamino) ethanol]	> 1000	+9%	-10%	-8%	
CC(CCc1ccccc1)NCC(O)c1ccc(CC(N)=O)cc1 (stereo not shown) [Compound 22, 1-(4-carbamoylmethylphenyl)-2-(1-methyl-3-phenylpropylamino) ethanol]	> 1000	+19%	-8%	-11%	
CCOC(=O)Cc1ccc(OCC(O)CNCCN(Cc2ccccc2)C(C)COc2ccccc2)cc1 (stereo not drawn) [Compound 26, 1-(4-ethoxycarbonylmethylphenoxy)-3-{β-[N-benzyl-N-(1-methyl-2-phenoxyethyl)]aminoethyl}amino-2-propanol]					change in vivo at 1 mg/kg [2, 3]: -12%; change in vivo at 1 mg/kg [2, 4]: 67%; Heart rate (decrease) (Effect on heart rate): -20 beats/min.; LD50 (in vivo; Table 7, oral): > 1000 mg/kg
CC(=O)Nc1ccc(OCC(O)CNCCN(Cc2ccccc2)C(C)COc2ccccc2)cc1 (stereo not drawn) [Compound 27, 1-(4-acetamidophenoxy)-3-{β-[N-benzyl-N-(1-methyl-2-phenoxyethyl)]aminoethyl} amino-2-propanol]					change in vivo at 1 mg/kg [2, 3]: 3%; change in vivo at 1 mg/kg [2, 4]: 100%; Heart rate (decrease) (Effect on heart rate): -13 beats/min.; LD50 (in vivo; Table 7, oral): > 1000 mg/kg
CCCC(=O)Nc1ccc(OCC(O)CNCCN(Cc2ccccc2)C(C)COc2ccccc2)c(C(C)=O)c1 (stereo not drawn) [Compound 28, 1-(4-butyrylamido-2-acetylphenoxy)-3-{β-[N-benzyl-N-(1-methyl-2-phenoxyethyl)]aminoethyl} amino-2-propanol]					change in vivo at 1 mg/kg [2, 3]: 4%; change in vivo at 1 mg/kg [2, 4]: 61%; Heart rate (decrease) (Effect on heart rate): -8 beats/min.; LD50 (in vivo; Table 7, oral): 1000 to 2000 mg/kg
Cc1cccc(OCC(O)CNCCN(Cc2ccccc2)C(C)COc2ccccc2)c1 (stereo not drawn) [Compound 29, 1-(3-methylphenoxy)-3-{β-[N-benzyl-N-(1-methyl-2-phenoxyethyl)]aminoethyl} amino-2-propanol]					change in vivo at 1 mg/kg [2, 3]: -45%; change in vivo at 1 mg/kg [2, 4]: 100%; Heart rate (decrease) (Effect on heart rate): -4 beats/min.
CC(COc1ccccc1)N(CCNCC(O)COc1ccc(CC(N)=O)cc1)Cc1ccccc1 (stereo not drawn) [Compound 30, 1-(4-carbamoylmethylphenoxy)-3-{β-[N-benzyl-N-(1-methyl-2-phenoxyethyl)]aminoethyl} amino-2-propanol]					change in vivo at 1 mg/kg [2, 3]: -19%; change in vivo at 1 mg/kg [2, 4]: 10%; Heart rate (decrease) (Effect on heart rate): -5 beats/min.
COc1ccc(OCC(C)NCC(O)COc2ccccc2C#N)cc1 (stereo not shown) [Compound 31]	125 to 250	-20%	-54%	-30%	
CCOC(=O)Cc1ccc(OCC(O)CNC(C)COc2ccc(OC)cc2)cc1 (stereo not shown) [Compound 32, 1-(4-ethoxycarbonylmethylphenoxy)-3-{1-methyl-2-(4-methoxyphenoxy)ethylamino}-2-propanol]	> 1000	0%	-11%	-2%	
COc1ccc(OCC(C)NCC(O)COc2ccc(NC(C)=O)cc2)cc1 (stereo not shown) [Compound 33, 1-(4-acetamidophenoxy)-3-{1-methyl-2-(4-methoxyphenoxy)ethylamino}-2-propanol]	> 1000	-21%	-52%	-13%	
COc1ccc(OCC(C)NCC(O)COc2ccc(CC(N)=O)cc2)cc1 (stereo not shown) [Compound 34, 1-(4-carbamoylmethylphenoxy)-3-{1-methyl-2-(4-methoxyphenoxy)ethylamino}-2-propanol]	> 1000	-36%	-55%	-57%	
CC(CCc1ccccc1)NCC(O)c1ccc(O)c(C(N)=O)c1 (stereo not shown) [Reference compound, 5-[1-hydroxy-2-(1-methyl-3-phenylpropyl)aminoethyl] salicylamide hydrochloride, reference compound]		-32%	-69%	-50%	
